Source: PMC9883252 (iScience, 2023)

What was measured:
[1] = test system: P. falciparum gametocytes (NF54 and 3601E1); assay: Activity against synchronous gametocytes; type: cell-based, Plasmodium falciparum; conditions: stage V
[2] = test system: P. falciparum NF54 strain; assay: Inhibition activity in the asexual blood stages; type: cell-based; conditions: Plasmodium falciparum, NF54, 72 h, read-out: Pf IC50 (mean)

IC50 [2] | Compound | killing of late stage gametocytes [1]
 | COc1ccc(C[C@H](N)C(=O)N[C@H]2[C@@H](O)[C@H](n3cnc4c(N(C)C)ncnc43)O[C@@H]2CO)cc1 [Puromycin, puromycin] | does not reach complete killing
410 nM | COc1ccc2cc1Oc1ccc(cc1)C[C@@H]1NCCc3cc(OC)c4c(c31)Oc1cc3c(cc1O4)CCN(C)[C@H]3C2 [trilobine] | 
